Assays:
nematode larvae = experiment: In-vitro nematocidal test: larvae treated in aqueous suspension, injected into root zone of tomato plants, gall count; type: in vivo, Meloidogyne incognita; settings: larvae treated 1 hour; for Gall Count, replicate 2: control 88; for Gall Count, Mean: control 89; for Gall Count, replicate 1: control 90
Procedure: The procedure of Example 2 is repeated except that potassium tetrathiocarbonate is substituted for stabilized ammonium tetrathiocarbonate and an in-vitro nematocidal test is used. In the in-vitro test, the nematode larvae are treated in aqueous suspension for 1 hour at the concentrations of fumigant given in the following table, washed twice with water, and injected into the active root zone of the tomato plants. After thirty days the roots are harvested, examined for galling, giving the results summarized below.

[1] = Storage stability: loss of ability of aqueous solutions to generate carbon disulfide upon contact with strong acid; type: physicochemical; settings: aqueous solutions of tetrathiocarbonate salts, about 14 to about 16 percent by weight carbon disulfide equivalent, air-tight glass containers, 49° C.
Procedure: Various tetrathiocarbonate salts are evaluated for storage stability by measuring the loss of the ability of aqueous solutions thereof to generate carbon disulfide upon contact with strong acid. Aqueous solutions of the salts listed in the following table, having an equivalent of from about 14 to about 16 percent by weight carbon disulfide, are stored in air-tight glass containers at a temperature of 49° C.

Fusarium oxysporum = experiment: Fungicidal test, radial growth of mycelia colonies; type: cell-based
Procedure: (§1) Thiocarbonate solutions are used in a test of their fungicidal properties. Cultures of four plant pathogenic fungi are grown upon potato dextrose agar at room temperature, in diffuse natural lighting. After one week, square blocks having 2 millimeter sides are cut from the edges of actively growing mycelia spots on the agar.
(§2) The blocks are immersed in sterile deionized water, as a control, or in dilutions of thiocarbonate solutions using the sterile water, in a closed container. Subsequently, the blocks are removed and placed upon agar in clean plates, and mycelia are allowed to grow for one week.
(§3) Radial growth of mycelia colonies is measured for each of the six to eight replicate plates used for a particular fungus, and average colony radius is calculated. Percent control is defined by the following equation: Percent control =[1-((Average radius of treated plates)/(Average radius of control plates))]x100 [formula]
(§4) Concentrations given for solutions used to treat the agar blocks are expressed in grams of thiocarbonate solution per liter of diluted solution.

Phytophthora cinnamomi = experiment: Fungicidal test, radial growth of mycelia colonies; type: cell-based
Procedure: as §1, §2, §3, §4

Sclerotium rolfsii = experiment: Fungicidal test, radial growth of mycelia colonies; type: cell-based
Procedure: as §1, §2, §3, §4

Verticillium dahliae = experiment: Fungicidal test, radial growth of mycelia colonies; type: cell-based
Procedure: as §1, §2, §3, §4

[2] = Decomposition in sandy loam soil at different moisture, CS2 in air space by gas chromatography; type: physicochemical; settings: hours to maximum CS2 concentration in the air space
Procedure: A sandy loam soil is placed in 1-liter glass bottles, fitted with stoppers having fluorocarbon liners and silicone rubber septa, to give a soil depth of about 4 cm. […] Thiocarbonate solution or carbon disulfide is injected near the bottom of the soil layer, the bottles are promptly sealed, and the air space in the bottles is sampled at intervals with a syringe, for gas chromatographic analysis of CS2. Results are summarized below, wherein degradation time is the number of hours required to achieve the maximum CS2 concentration in the air space.

[3] = system: root-knot nematode larvae (Meloidogyne incognita); experiment: Greenhouse nematocide experiment with tomato plants, soil drench, root gall count; type: in vivo; settings: 30 days; for Gall Counts, replicate 3: control 1; for Gall Counts, Mean: control 4.0; for Gall Counts, replicate 2: control 7; for Gall Counts, replicate 1: control 4
Procedure: In the experiment, thirty containers are used, each containing about 500 grams of sterilized sandy loam soil. Each container contains one tomato plant. Each container is injected with four 5-milliliter portions of extract from nematode-infested pepper roots, one inch below the soil surface, producing an initial population of 2000 root-knot nematode larvae (Meloidogyne incognita) per container.
Ten treatments are replicated three times, each treatment consisting of drenching the soil with a solution containing the fumigant to provide the dosage of CS2 given in the following table. The solutions are diluted with sufficient water to saturate the soil. The treatments include calcium tetrathiocarbonate, stabilized ammonium tetrathiocarbonate, and carbon disulfide at three levels, plus an untreated control. After drenching, each container is allowed to stand at ambient conditions. The plants are harvested after 30 days of growth, and soil is removed from the roots by a gentle washing with water. By use of a magnifying glass, the number of root galls is counted on each plant.
Results are summarized below, wherein the "Application" represents milligrams of treatment per kilogram of soil, calculated as the thiocarbonate salt and the equivalent carbon disulfide. Gall counts are mean values from the three replicates.

[4] = Effect of pH on production of CS2 from thiocarbonates in citrate-phosphate buffers, gas chromatography of air; type: physicochemical
Procedure: Pure carbon disulfide is also injected, for comparison. A syringe is used to periodically sample air in the bottle, and the air is analyzed by gas chromatography.

[5] = 50 ppm salt (6.3 ppm CS2 equiv. CaCS4; 6.5 ppm K2CS4)
[6] = 100 ppm salt (12.5 ppm CS2 equiv. CaCS4; 13 ppm K2CS4)
[7] = 150 ppm salt (18.8 ppm CS2 equiv. CaCS4; 19.5 ppm K2CS4)
[8] = 1 g/l, listed as K2CS4 (9.43%CS2)
[9] = 10 g/l, listed as K2CS4 (9.43%CS2)
[10] = Soil Moisture 0 % of Saturation
[11] = Soil Moisture 50 % of Saturation
[12] = Soil Moisture 100 % of Saturation
[13] = 100 g/l thiocarbonate solution per liter of diluted solution
[14] = highest application: 638/89 ppm ((NH4)2CS4·(NH4)2S), 730/91 (CaCS4), 97 ppm (CS2)
[15] = lowest application: 213/30 ppm ((NH4)2CS4·(NH4)2S), 245/31 (CaCS4), 32 ppm (CS2)
[16] = middle application: 425/60 ppm ((NH4)2CS4·(NH4)2S), 490/61 (CaCS4), 65 ppm (CS2)

With S=C(S)SS [Formula K2CS4, potassium tetrathiocarbonate] the “Gall Count, replicate 2” value (nematode larvae; [5]) was 66, the “Gall Count, Mean” value (nematode larvae; [5]) was 49.5 and the “Gall Count, replicate 1” value (nematode larvae; [5]) was 33. The “Gall Count, replicate 2” value (nematode larvae; [6]) was 145, the “Gall Count, Mean” value (nematode larvae; [6]) was 171.5 and the “Gall Count, replicate 1” value (nematode larvae; [6]) was 198. For the same molecule, the “Gall Count, replicate 2” value (nematode larvae; [7]) was 22, the “Gall Count, Mean” value (nematode larvae; [7]) was 35.5 and the “Gall Count, replicate 1” value (nematode larvae; [7]) was 49. For the same molecule, the “Half-life (months)” value ([1]; listed as K^+) was 2.9 months, the “Percent Control Fusarium oxysporum” value (Fusarium oxysporum; [8]) was 8% and the “Percent Control Fusarium oxysporum” value (Fusarium oxysporum; [9]) was 10%. For the same molecule, the “Percent Control Fusarium oxysporum” value (Fusarium oxysporum; 100 g/l thiocarbonate solution per liter of diluted solution, listed as K2CS4 (9.43%CS2)) was 76%, the “Percent Control Phytophthora cinnamomi” value (Phytophthora cinnamomi; [8]) was 56% and the “Percent Control Phytophthora cinnamomi” value (Phytophthora cinnamomi; [9]) was 68%. For the same molecule, the “Percent Control Phytophthora cinnamomi” value (Phytophthora cinnamomi; 100 g/l) was 100%, the “Percent Control Sclerotium rolfsii” value (Sclerotium rolfsii; [8]) was 42% and the “Percent Control Sclerotium rolfsii” value (Sclerotium rolfsii; [9]) was 8%. For the same molecule, the “Percent Control Sclerotium rolfsii” value (Sclerotium rolfsii; 100 g/l) was 100%, the “Percent Control Verticillium dahliae” value (Verticillium dahliae; [8]) was 27% and the “Percent Control Verticillium dahliae” value (Verticillium dahliae; [9]) was 15%. The “Percent Control Verticillium dahliae” value (Verticillium dahliae; 100 g/l) was 100%, the “Degradation Time” value [2, 10] was 2 h and the “Degradation Time” value [2, 11] was 5 h. The “Degradation Time” value [2, 12] was 48 h.
With S=C(S)SS [NH4^+, ammonium tetrathiocarbonate] the “Half-life (months)” value [1] was 0.17 months.
With S=C(S)SS [Na2CS4 (10.6%CS2), sodium tetrathiocarbonate] the “Half-life (months)” value ([1]; listed as Na^+) was 3.0 months, the “Percent Control Fusarium oxysporum” value (Fusarium oxysporum; 1 g/l) was 4% and the “Percent Control Fusarium oxysporum” value (Fusarium oxysporum; 10 g/l) was 6%. The “Percent Control Fusarium oxysporum” value (Fusarium oxysporum; [13]) was 100%, the “Percent Control Phytophthora cinnamomi” value (Phytophthora cinnamomi; 10 g/l) was 37% and the inhibition of growth at 100000 µg/mL (Phytophthora cinnamomi; Phytophthora cinnamomi, 168 h, 100 g/l, read-out: Percent Control Phytophthora cinnamomi) was 100%. For the same molecule, the “Percent Control Sclerotium rolfsii” value (Sclerotium rolfsii; 10 g/l) was 100%, the inhibition of growth at 100000 µg/mL (Sclerotium rolfsii; Agroathelia rolfsii, 168 h, 100 g/l, read-out: Percent Control Sclerotium rolfsii) was 100% and the “Percent Control Verticillium dahliae” value (Verticillium dahliae; 1 g/l) was 23%. The inhibition of growth (Verticillium dahliae; Verticillium dahliae, 168 h, 10 g/l, read-out: Percent Control Verticillium dahliae) was 26% and the inhibition of growth at 100000 µg/mL (Verticillium dahliae; Verticillium dahliae, 168 h, 100 g/l, read-out: Percent Control Verticillium dahliae) was 100%.
In the case of “stabilized ammonium tetrathiocarbonate [(NH4)2CS4·(NH4)2S]”, the “Gall Counts, replicate 3” value [3, 14] is reported as 2, the “Gall Counts, Mean” value [3, 14] is reported as 4.3 and the “Gall Counts, replicate 2” value [3, 14] is reported as 5. The “Gall Counts, replicate 1” value ([3]; highest application: 638 ppm salt/89 ppm Eq. CS2 ((NH4)2CS4·(NH4)2S), 730/91 (CaCS4), 97 ppm (CS2)) was 6, the “Gall Counts, replicate 3” value [3, 15] was 3 and the “Gall Counts, Mean” value [3, 15] was 5.0. The “Gall Counts, replicate 2” value [3, 15] was 7, the “Gall Counts, replicate 1” value ([3]; lowest application: 213 ppm salt/30 ppm Eq. CS2 ((NH4)2CS4·(NH4)2S), 245/31 (CaCS4), 32 ppm (CS2)) was 5 and the “Gall Counts, replicate 3” value [3, 16] was 6. The “Gall Counts, Mean” value [3, 16] was 10.0, the “Gall Counts, replicate 2” value [3, 16] was 15 and the “Gall Counts, replicate 1” value ([3]; middle application: 425 ppm salt/60 ppm Eq. CS2 ((NH4)2CS4·(NH4)2S), 490/61 (CaCS4), 65 ppm (CS2)) was 9. For the same molecule, the “Half-life (minutes) for production of carbon disulfide” value (from here on “Half-life (minutes) for production”) ([4]; pH 5.2, 125 milligrams per liter of thiocarbonate ion) was 1 min, the “Half-life (minutes) for production” value ([4]; pH 6.0, 125 milligrams per liter of thiocarbonate ion) was 1 min and the “Half-life (minutes) for production” value ([4]; pH 7.0, 125 milligrams per liter of thiocarbonate ion) was 2.1 min. For the same molecule, the “Half-life (minutes) for production” value ([4]; pH 8.0, 125 milligrams per liter of thiocarbonate ion, CaCS4 values above pH 7 called unreliable) was 9.2 min, the “Half-life (minutes) for production” value ([4]; pH 9.0, 125 milligrams per liter of thiocarbonate ion, CaCS4 values above pH 7 called unreliable) was 26.1 min and the “Percent Control Fusarium oxysporum” value (Fusarium oxysporum; 1 g/l) was 70%. For the same molecule, the “Percent Control Fusarium oxysporum” value (Fusarium oxysporum; 10 g/l) was 100%, the “Percent Control Fusarium oxysporum” value (Fusarium oxysporum; [13]) was 100% and the “Percent Control Phytophthora cinnamomi” value (Phytophthora cinnamomi; 1 g/l) was 97%. For the same molecule, the “Percent Control Phytophthora cinnamomi” value (Phytophthora cinnamomi; 10 g/l) was 74%, the “Percent Control Phytophthora cinnamomi” value (Phytophthora cinnamomi; 100 g/l) was 100% and the “Percent Control Sclerotium rolfsii” value (Sclerotium rolfsii; 1 g/l) was 49%. For the same molecule, the “Percent Control Sclerotium rolfsii” value (Sclerotium rolfsii; 10 g/l) was 93%, the “Percent Control Sclerotium rolfsii” value (Sclerotium rolfsii; 100 g/l) was 100% and the “Percent Control Verticillium dahliae” value (Verticillium dahliae; 1 g/l) was 41%. For the same molecule, the “Percent Control Verticillium dahliae” value (Verticillium dahliae; 10 g/l) was 81%, the “Percent Control Verticillium dahliae” value (Verticillium dahliae; 100 g/l) was 91% and the “Degradation Time” value [2, 10] was 2 h. The “Degradation Time” value [2, 11] was 3 h and the “Degradation Time” value [2, 12] was 48 h.

From patent EP0337503B1, “Fumigation methods and compositions” (Entek Corporation, priority 1983, dated 1984)
